In ChEMBL document CHEMBL3102853, “Carbonic anhydrase inhibitors. Synthesis, and molecular structure of novel series N-substituted N'-(2-arylmethylthio-4-chloro-5-methylbenzenesulfonyl)guanidines and their inhibition of human cytosolic isozymes I and II and the transmembrane tumor-associated isozymes IX and XII” (Eur J Med Chem, 2014):
Values belong to the compound of their own block, whether it stands above or below them. Calls of active or inactive are those of the source. The calls are words filed in the database; no cut-off is given here.

Key:
[1] = Cytotoxicity against human Hs 578T cells at 10 uM; format: functional; details: read-out: GI
[2] = test system: MCF7; assay: Cytotoxicity against human MCF7 cells at 10 uM; format: functional
[3] = test system: T47D; assay: Cytotoxicity against human T47D cells at 10 uM; format: functional; details: read-out: GI
[4] = test system: DU-145; assay: Cytotoxicity against human DU145 cells at 10 uM; format: functional
[5] = test system: PC-3; assay: Cytotoxicity against human PC3 cells at 10 uM; format: functional
[6] = test system: A498; assay: Cytotoxicity against human A498 cells at 10 uM; format: functional; details: read-out: GI
[7] = test system: NCI/ADR-RES; assay: Cytotoxicity against human NCI-ADR-RES cells at 10 uM; format: functional
[8] = test system: LOX IMVI; assay: Cytotoxicity against human LOXIMVI cells at 10 uM; format: functional; details: read-out: GI
[9] = test system: OVCAR-3; assay: Cytotoxicity against human OVCAR3 cells at 10 uM; format: functional
[10] = test system: UACC-62; assay: Cytotoxicity against human UACC62 cells at 10 uM; format: functional; details: read-out: GI
[11] = test system: SK-MEL-2; assay: Cytotoxicity against human SK-MEL-2 cells at 10 uM; format: functional
[12] = test system: SF-268; assay: Cytotoxicity against human SF268 cells at 10 uM; format: functional; details: read-out: GI
[13] = test system: SW-620; assay: Cytotoxicity against human SW620 cells at 10 uM; format: functional; details: read-out: GI
[14] = test system: SNB-75; assay: Cytotoxicity against human SNB75 cells at 10 uM; format: functional; details: read-out: GI
[15] = test system: KM12; assay: Cytotoxicity against human KM12 cells at 10 uM; format: functional
[16] = test system: HT-29; assay: Cytotoxicity against human HT-29 cells at 10 uM; format: functional
[17] = test system: HOP-92; assay: Cytotoxicity against human HOP92 cells at 10 uM; format: functional; details: read-out: GI
[18] = test system: NCI-H460; assay: Cytotoxicity against human NCI-H460 cells at 10 uM; format: functional; details: read-out: GI
[19] = test system: A549; assay: Cytotoxicity against human A549 cells at 10 uM; format: functional
[20] = biological target: T1, Carbonic anhydrase 9 (Homo sapiens, UniProt Q16790)
[21] = biological target: T1, Carbonic anhydrase 9; remark: listed apart in the source
Description: Inhibition of CA9 (unknown origin)

Ki [20]: 9.4 nM
Compound: Cc1cc(S(=O)(=O)NC(=N)Nc2nnc(S(N)(=O)=O)s2)c(SCc2cccc3ccccc23)cc1Cl
inhibition of growth at 10 µM [1]: 15%
growth inhibition (GI) [2]: inactive
inhibition of growth at 10 µM [3]: 17%
growth inhibition (GI) [4]: inactive
growth inhibition (GI) [5]: inactive
inhibition of growth at 10 µM [6]: 48%
growth inhibition (GI) [7]: inactive
inhibition of growth at 10 µM [8]: 2%
growth inhibition (GI) [9]: inactive
inhibition of growth at 10 µM [10]: 2%
growth inhibition (GI) [11]: inactive
inhibition of growth at 10 µM [12]: 4%
inhibition of growth at 10 µM [13]: 8%
inhibition of growth at 10 µM [14]: 11%
growth inhibition (GI) [15]: inactive
growth inhibition (GI) [16]: inactive
inhibition of growth at 10 µM [17]: 3%
inhibition of growth at 10 µM [18]: 3%
growth inhibition (GI) [19]: inactive

Ki [21]: 3.2 nM
Compound: NS(=O)(=O)c1ccc2c(c1)CCC2NC(=O)c1c(F)c(F)c(F)c(F)c1F (configuration not stated)

Ki [20]: 310 nM
Compound: Cc1cc(S(=O)(=O)NC(=N)NCc2ccc(S(N)(=O)=O)cc2)c(SCc2cc(=O)[nH]c3ccccc23)cc1Cl
